The text below walks through data of patent publication US4547513A, “2-Arylbenzothiazoline derivatives and their use in treating angina cordis” (Santen Pharmaceutical Co., Ltd., priority 1983, dated 1985).

The test system of assay [1] is platelet aggregation (rabbit platelet rich plasma). In words: Platelet antiaggregatory activity in rabbit platelet rich plasma in vitro (Pharmacological test II). The settings on record: Oryctolagus cuniculus, rabbit PRP, 1 minute preincubation at 37° C., induced by collagen (3μg/ml) or ADP (3μM), inducer not given, read-out: Antiaggregation activity IC50 (50% inhibition of the control response). It counts as cell-based. The protocol: Blood was obtained from an anesthetized rabbit using 0.1 volume of 3.8% sodium citrate as anticoagulant. Platelet rich plasma (PRP) was isolated by centrifugation at 650 rpm for 10 minutes at room temperature. After preincubation of PRP (0.25 ml) with various concentrations of the test compounds (14μl) for 1 minute at 37° C., collagen (3μg/ml: final concentration) or ADP (3μM: final concentration) was added to induce aggregation and the aggregation profiles were monitored by RIKADENKI six-channel aggregometer. The control experiment contained saline instead of the test compound.
The antiaggregatory activity was represented by the concentration of the test compounds which elicited 50% inhibition of the control response.

The test system of assay [2] is guineapig teania coli. As to the kind of experiment: Calciumantagonistic activity: inhibition of Ca++-evoked contraction of isolated guineapig teania coli (Pharmacological test I). It counts as cell-based. The settings on record: Cavia porcellus, 5 min, Ca++-free-high-K Krebs solution, 32° C., 5 minutes exposure before CaCl2 (3×10^-4M), read-out: Calciumantagonistic activity IC50 (50% inhibition of Ca++-evoked contraction). How it is done:
The action potentials on the smooth muscles of uterus, teania coli and portal vein depend on calcium ion, and therefore these smooth muscle preparations are useful for screening of calciumantagonists. We measured the calciumantagonistic activity of the compounds by the method using guineapig teania coli preparation.
Isolated guineapig teania coli was suspended in a 20 ml organ bath with Krebs solution at 32° C. and bubbled with 5% carbon dioxide in oxygen. After equilibration, the muscle was washed with Ca^++ -free Krebs solution, and when the muscle had relaxed to basal level, it was suspended in Ca^++ -free-high-K Krebs solution.
The muscule was exposed to the test compounds for 5 minutes before addition of CaCl2, and the contraction evoked by CaCl2 (3×10^-4M) was recorded isotonically. The calciumantagonistic activity was represented by the concentration of the test compound which elicited 50% inhibition of Ca^++ -evoked contraction (IC50).

Where a name gives a salt, the structure may show the parent alone.

`COc1ccc(OCCCCN2CCC(C(=O)c3ccc(C)cc3)CC2)c(C2Sc3ccccc3N2C(C)=O)c1` (stereo not shown) [compound 3, 3-Acetyl-2-(5-methoxy-2-[4-[4-(4-methylbenzoyl)-1-piperidyl]butoxy]phenyl]benzothiazoline maleate]: in assay [1], the IC50 worked out at 3.2 µM.

With `COc1ccc(OCCCCN2CCC(C(=O)c3ccc(Cl)cc3)CC2)c(C2Sc3ccccc3N2C(C)=O)c1` (stereo not shown) [compound 4, 3-Acetyl-2-[2-[4-[4-(4-chlorobenzoyl)-1-piperidyl]butoxy]-5-methoxyphenyl]benzothiazoline maleate], the figures for the IC50 in assay [2] and in assay [1] were 8.7 µM and 3.2 µM, respectively.

Regarding `COc1ccc(OCCCCN2CCC(C(O)c3ccccc3)CC2)c(C2Sc3ccccc3N2C(C)=O)c1` (stereo not drawn) [compound 5, 3-Acetyl-2-[2-[4-[4-(α-hydroxybenzyl)-1-piperidyl]butoxy]5-methoxyphenyl]benzothiazoline maleate], the IC50 in assay [2] amounted to 8.2 µM.

For `COc1ccc(OCCCCN2CCC(C(=O)c3ccc(F)cc3)CC2)c(C2Sc3ccccc3N2C(C)=O)c1` (stereo not shown) [compound 6, 3Acetyl-2-[2-[4-[4-(4-fluorobenzoyl)-1-piperidyl]butoxy]-5-methoxyphenyl]benzothiazoline maleate], the IC50 in assay [2] stood at 1.6 µM; in assay [1] it was 0.29 µM.

In the case of `COc1ccc(OCCCCN2CCC(C(=O)Cc3ccccc3)CC2)c(C2Sc3ccccc3N2C(C)=O)c1` (stereo not shown) [compound 7, 3-Acetyl-2-[2-[4-(4-benzylcarbonyl-1piperidyl)butoxy]-5-methoxyphenyl]benzothiazoline maleate], in assay [2], the IC50 was 3.2 µM.

In general, IC50 refers to the concentration at which inhibition is half-maximal.
